The results in this text go back to patent publication US12427157B2, “Methods for treatment of diseases involving acidic or hypoxic diseased tissues” (Cybrexa 1, Inc., priority 2018, dated 2025).

In one test the test system is DLD-1 BRCA2−/− cells. As to the kind of experiment: Growth delay assay. Format: cell-based, Human. The settings on record: pH 7.4, BRCA (−/−) DLD-1, 96 h. On the procedure: Cells were plated in 96 well black walled-clear bottom plates (Griener), DLD-1 WT cells at 2500 cells per well, DLD-1 BRCA2−/− at 5000 cells per well, in growth media containing 10% FBS. Cells were allowed to adhere at room temperature for 60 minutes before returning to a 37 C, 5% CO2 incubator. After 24 hours, media was removed and replaced with fresh growth media containing various drug concentrations. Each drug concentration was added in triplicate. Non-drug treated controls contained growth media only. Cells were returned to the incubator. Ninety-six hours after addition of drug, cells were fixed with 4% paraformaldehyde for 20 minutes and stained with Hoechst at 1 ug/mL. The plates were imaged on a Cytation 5 auto imager (BioTek) and cells were counted using CellProfiler (http://cellprofiler.org). The percent cell growth delay was calculated and data plotted using GraphPad Prism.

In the next test the target is PARP (Homo sapiens, UniProt P09874). Put plainly: Enzymatic Assay 2: HT Universal Chemiluminescent PARP Assay of cleaved compounds.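 Further: PARP reaction with activated DNA run 1 h at room temperature, product detected via streptavidin-HRP and luminescence endpoint reading on a plate reader.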 The settings on record: read-out: IC50 Enzymatic Assay 2; Examples cleaved per Example A (crude cleavage solution); R^8H starting materials as such.
PARP, sequence (P09874 whole entry): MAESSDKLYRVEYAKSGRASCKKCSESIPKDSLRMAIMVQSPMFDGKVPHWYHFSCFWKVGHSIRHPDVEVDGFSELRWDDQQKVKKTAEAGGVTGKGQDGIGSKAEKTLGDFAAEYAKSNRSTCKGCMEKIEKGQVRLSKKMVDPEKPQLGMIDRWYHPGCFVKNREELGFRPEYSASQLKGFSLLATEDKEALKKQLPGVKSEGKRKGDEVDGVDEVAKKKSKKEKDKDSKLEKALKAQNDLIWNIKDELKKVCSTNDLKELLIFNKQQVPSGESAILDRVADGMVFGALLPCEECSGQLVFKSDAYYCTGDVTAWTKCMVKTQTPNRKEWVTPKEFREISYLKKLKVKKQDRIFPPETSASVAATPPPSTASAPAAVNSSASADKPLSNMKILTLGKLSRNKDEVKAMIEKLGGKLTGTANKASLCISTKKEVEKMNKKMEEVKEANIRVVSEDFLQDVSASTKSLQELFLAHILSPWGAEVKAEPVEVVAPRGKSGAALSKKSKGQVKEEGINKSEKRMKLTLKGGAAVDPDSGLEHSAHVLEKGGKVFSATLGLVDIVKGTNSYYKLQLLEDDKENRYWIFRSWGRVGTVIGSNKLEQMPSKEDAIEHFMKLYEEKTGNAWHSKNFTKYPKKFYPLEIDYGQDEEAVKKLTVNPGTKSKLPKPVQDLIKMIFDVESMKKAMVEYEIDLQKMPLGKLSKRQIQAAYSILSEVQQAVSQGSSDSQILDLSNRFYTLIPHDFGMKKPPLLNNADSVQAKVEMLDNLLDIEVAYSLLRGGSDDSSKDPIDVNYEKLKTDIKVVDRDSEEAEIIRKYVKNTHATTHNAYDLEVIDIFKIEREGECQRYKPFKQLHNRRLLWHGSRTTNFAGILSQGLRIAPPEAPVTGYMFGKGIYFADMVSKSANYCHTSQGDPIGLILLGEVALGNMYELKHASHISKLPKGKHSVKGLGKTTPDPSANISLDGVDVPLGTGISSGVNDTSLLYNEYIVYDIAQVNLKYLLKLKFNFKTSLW

Residues, ends and D or L forms follow the SMILES beside them. *: point of attachment. X7 = C[C@@H](COC(=O)NCN1c2cc(F)cc3c(=O)[nH]nc(c23)[C@H](c2ncnn2C)[C@H]1c1ccc(F)cc1)S*; X4 = C[C@H](COC(=O)NCN1c2cc(F)cc3c(=O)[nH]nc(c23)[C@H](c2ncnn2C)[C@H]1c1ccc(F)cc1)S*

Procedure for PARP: An equal volume of 1×PARP cocktail containing activated DNA was added to each well and the reaction was incubated for one hour at room temperature. The wells were washed twice with 1×PBS+0.1% Triton X-100 and twice with PBS. 50 ul/well of diluted streptavidin-HRP was added and the wells were incubated for one hour at room temperature. The wells were washed twice with 1×PBS+0.1% Triton X-100 and washed twice with PBS. The liquid was 5 removed, 100 ul/well 1:1 PeroxyGlow A/PeroxyGlow B was added and the chemiluminescent readings were measured on a BioTek Cytation 5 plate reader using the luminescence fiber endpoint.

Take `CC[C@H](C)[C@H](NC(=O)[C@@H]1CCCN1C(=O)[C@H](CC(N)=O)NC(=O)[C@H](CCC(N)=O)NC(=O)[C@H](CCC(=O)O)NC(=O)[C@H](C)N)C(=O)N[C@@H](Cc1ccc(O)cc1)C(=O)N[C@@H](Cc1c[nH]c2ccccc12)C(=O)N[C@@H](C)C(=O)N[C@@H](CCCNC(=N)N)C(=O)N[C@@H](Cc1ccc(O)cc1)C(=O)N[C@@H](C)C(=O)N[C@@H](CC(=O)O)C(=O)N[C@@H](Cc1c[nH]c2ccccc12)C(=O)N[C@@H](CC(C)C)C(=O)N[C@@H](Cc1ccccc1)C(=O)N[C@H](C(=O)N[C@H](C(=O)N1CCC[C@H]1C(=O)N[C@@H](CC(C)C)C(=O)N[C@@H](CC(C)C)C(=O)N[C@@H](CC(C)C)C(=O)N[C@@H](CC(C)C)C(=O)N[C@@H](CC(=O)O)C(=O)N[C@@H](CC(C)C)C(=O)N[C@@H](C)C(=O)N[C@@H](CC(C)C)C(=O)N[C@@H](CC(C)C)C(=O)N[C@H](C(=O)N[C@@H](CC(=O)O)C(=O)N[C@@H](C)C(=O)N[C@@H](CC(=O)O)C(=O)N[C@@H](CCC(=O)O)C(=O)N[C@@H](CSS[C@@H](C)COC(=O)NCN1c2cc(F)cc3c(=O)[nH]nc(c23)[C@H](c2ncnn2C)[C@H]1c1ccc(F)cc1)C(=O)NCC(=O)O)C(C)C)[C@@H](C)O)[C@@H](C)O` [Example 13] (H-AEQNPIYWARYADWLFTTPLLLLDLALLVDADEC(X7)G-OH; N-terminus and C-terminus assumed): the values for the concentration for half-maximal inhibition (IC50) in the test with DLD-1 BRCA2−/− cells and on PARP were 51 nM and 1 nM, respectively.

Consider `CC(C)C[C@H](NC(=O)[C@H](Cc1ccc(O)cc1)NC(=O)[C@H](C)NC(=O)[C@H](CCCNC(=N)N)NC(=O)[C@H](Cc1c[nH]c2ccccc12)NC(=O)[C@@H]1CCCN1C(=O)[C@H](CC(N)=O)NC(=O)[C@H](CCC(N)=O)NC(=O)[C@H](CC(=O)O)NC(=O)[C@H](CC(=O)O)NC(=O)[C@H](C)N)C(=O)N[C@@H](CC(=O)O)C(=O)N[C@@H](CC(C)C)C(=O)N[C@@H](CC(C)C)C(=O)N[C@@H](Cc1ccccc1)C(=O)N1CCC[C@H]1C(=O)N[C@H](C(=O)N[C@@H](CC(=O)O)C(=O)N[C@H](C(=O)N[C@@H](CC(C)C)C(=O)N[C@@H](CC(C)C)C(=O)N[C@@H](CC(C)C)C(=O)N[C@@H](CC(=O)O)C(=O)N[C@@H](CC(C)C)C(=O)N[C@@H](CC(C)C)C(=O)N[C@@H](Cc1c[nH]c2ccccc12)C(=O)N[C@@H](CSSCCOC(=O)NCN1c2cc(F)cc3c(=O)[nH]nc(c23)[C@H](c2ncnn2C)[C@H]1c1ccc(F)cc1)C(=O)NCC(=O)O)[C@@H](C)O)[C@@H](C)O` [Example 16], for which the half-maximal inhibitory concentration (IC50) with DLD-1 BRCA2−/− cells came out at 84 nM; at PARP, 0.61 nM.

For the molecule `CC(C)C[C@H](NC(=O)[C@H](Cc1ccc(O)cc1)NC(=O)[C@H](C)NC(=O)[C@H](CCCNC(=N)N)NC(=O)[C@H](Cc1c[nH]c2ccccc12)NC(=O)[C@@H]1CCCN1C(=O)[C@H](CC(N)=O)NC(=O)[C@H](CCC(N)=O)NC(=O)[C@H](CC(=O)O)NC(=O)[C@H](CC(=O)O)NC(=O)[C@H](C)N)C(=O)N[C@@H](CC(=O)O)C(=O)N[C@@H](CC(C)C)C(=O)N[C@@H](CC(C)C)C(=O)N[C@@H](Cc1ccccc1)C(=O)N1CCC[C@H]1C(=O)N[C@H](C(=O)N[C@@H](CC(=O)O)C(=O)N[C@H](C(=O)N[C@@H](CC(C)C)C(=O)N[C@@H](CC(C)C)C(=O)N[C@@H](CC(C)C)C(=O)N[C@@H](CC(=O)O)C(=O)N[C@@H](CC(C)C)C(=O)N[C@@H](CC(C)C)C(=O)N[C@@H](Cc1c[nH]c2ccccc12)C(=O)N[C@@H](CC(=O)O)C(=O)N[C@@H](C)C(=O)N[C@@H](CC(=O)O)C(=O)N[C@@H](CCC(=O)O)C(=O)N[C@@H](CSSCCOC(=O)NCN1c2cc(F)cc3c(=O)[nH]nc(c23)[C@H](c2ncnn2C)[C@H]1c1ccc(F)cc1)C(=O)NCC(=O)O)[C@@H](C)O)[C@@H](C)O` [Example 17], the IC50 in the test with DLD-1 BRCA2−/− cells came to 50 nM; at PARP it was 0.41 nM.

Consider `CC(C)C[C@H](NC(=O)[C@H](Cc1ccc(O)cc1)NC(=O)[C@H](C)NC(=O)[C@H](CCCNC(=N)N)NC(=O)[C@H](Cc1c[nH]c2ccccc12)NC(=O)[C@@H]1CCCN1C(=O)[C@H](CC(N)=O)NC(=O)[C@H](CCC(N)=O)NC(=O)[C@H](CC(=O)O)NC(=O)[C@H](CC(=O)O)NC(=O)[C@H](C)N)C(=O)N[C@@H](CC(=O)O)C(=O)N[C@@H](CC(C)C)C(=O)N[C@@H](CC(C)C)C(=O)N[C@@H](Cc1ccccc1)C(=O)N1CCC[C@H]1C(=O)N[C@H](C(=O)N[C@@H](CC(=O)O)C(=O)N[C@H](C(=O)N[C@@H](CC(C)C)C(=O)N[C@@H](CC(C)C)C(=O)N[C@@H](CC(C)C)C(=O)N[C@@H](CC(=O)O)C(=O)N[C@@H](CC(C)C)C(=O)N[C@@H](CC(C)C)C(=O)N[C@@H](Cc1c[nH]c2ccccc12)C(=O)N[C@@H](CSS[C@H](C)COC(=O)NCN1c2cc(F)cc3c(=O)[nH]nc(c23)[C@H](c2ncnn2C)[C@H]1c1ccc(F)cc1)C(=O)NCC(=O)O)[C@@H](C)O)[C@@H](C)O` [Example 40], for which the values for the IC50 with DLD-1 BRCA2−/− cells and at PARP were 64 nM and 1.1 nM, respectively.

On to `CC(C)C[C@H](NC(=O)[C@H](Cc1ccc(O)cc1)NC(=O)[C@H](C)NC(=O)[C@H](CCCNC(=N)N)NC(=O)[C@H](Cc1c[nH]c2ccccc12)NC(=O)[C@@H]1CCCN1C(=O)[C@H](CC(N)=O)NC(=O)[C@H](CCC(N)=O)NC(=O)[C@H](CC(=O)O)NC(=O)[C@H](CC(=O)O)NC(=O)[C@H](C)N)C(=O)N[C@@H](CC(=O)O)C(=O)N[C@@H](CC(C)C)C(=O)N[C@@H](CC(C)C)C(=O)N[C@@H](Cc1ccccc1)C(=O)N1CCC[C@H]1C(=O)N[C@H](C(=O)N[C@@H](CC(=O)O)C(=O)N[C@H](C(=O)N[C@@H](CC(C)C)C(=O)N[C@@H](CC(C)C)C(=O)N[C@@H](CC(C)C)C(=O)N[C@@H](CC(=O)O)C(=O)N[C@@H](CC(C)C)C(=O)N[C@@H](CC(C)C)C(=O)N[C@@H](Cc1c[nH]c2ccccc12)C(=O)N[C@@H](CSS[C@@H](C)COC(=O)NCN1c2cc(F)cc3c(=O)[nH]nc(c23)[C@H](c2ncnn2C)[C@H]1c1ccc(F)cc1)C(=O)NCC(=O)O)[C@@H](C)O)[C@@H](C)O` [Example 42], for which the IC50 in the test with DLD-1 BRCA2−/− cells came to 53 nM; on PARP, 1.4 nM.

As for `CC[C@H](C)[C@H](NC(=O)[C@@H]1CCCN1C(=O)[C@H](CC(N)=O)NC(=O)[C@H](CCC(N)=O)NC(=O)[C@H](CCC(=O)O)NC(=O)[C@H](C)N)C(=O)N[C@@H](Cc1ccc(O)cc1)C(=O)N[C@@H](Cc1c[nH]c2ccccc12)C(=O)N[C@@H](C)C(=O)N[C@@H](CCCNC(=N)N)C(=O)N[C@@H](Cc1ccc(O)cc1)C(=O)N[C@@H](C)C(=O)N[C@@H](CC(=O)O)C(=O)N[C@@H](Cc1c[nH]c2ccccc12)C(=O)N[C@@H](CC(C)C)C(=O)N[C@@H](Cc1ccccc1)C(=O)N[C@H](C(=O)N[C@H](C(=O)N1CCC[C@H]1C(=O)N[C@@H](CC(C)C)C(=O)N[C@@H](CC(C)C)C(=O)N[C@@H](CC(C)C)C(=O)N[C@@H](CC(C)C)C(=O)N[C@@H](CC(=O)O)C(=O)N[C@@H](CC(C)C)C(=O)N[C@@H](C)C(=O)N[C@@H](CC(C)C)C(=O)N[C@@H](CC(C)C)C(=O)N[C@H](C(=O)N[C@@H](CC(=O)O)C(=O)N[C@@H](C)C(=O)N[C@@H](CC(=O)O)C(=O)N[C@@H](CCC(=O)O)C(=O)N[C@@H](CSS[C@H](C)COC(=O)NCN1c2cc(F)cc3c(=O)[nH]nc(c23)[C@H](c2ncnn2C)[C@H]1c1ccc(F)cc1)C(=O)NCC(=O)O)C(C)C)[C@@H](C)O)[C@@H](C)O` [Example 14] (H-AEQNPIYWARYADWLFTTPLLLLDLALLVDADEC(X4)G-OH; N-terminus and C-terminus assumed), the figures for the concentration for half-maximal inhibition (IC50) in the test on DLD-1 BRCA2−/− cells and on PARP were 72 nM and 0.5 nM, respectively.

Turning to `CC(C)C[C@H](NC(=O)[C@H](Cc1ccc(O)cc1)NC(=O)[C@H](C)NC(=O)[C@H](CCCNC(=N)N)NC(=O)[C@H](Cc1c[nH]c2ccccc12)NC(=O)[C@@H]1CCCN1C(=O)[C@H](CC(N)=O)NC(=O)[C@H](CCC(N)=O)NC(=O)[C@H](CC(=O)O)NC(=O)[C@H](CC(=O)O)NC(=O)[C@H](C)N)C(=O)N[C@@H](CC(=O)O)C(=O)N[C@@H](CC(C)C)C(=O)N[C@@H](CC(C)C)C(=O)N[C@@H](Cc1ccccc1)C(=O)N1CCC[C@H]1C(=O)N[C@H](C(=O)N[C@@H](CC(=O)O)C(=O)N[C@H](C(=O)N[C@@H](CC(C)C)C(=O)N[C@@H](CC(C)C)C(=O)N[C@@H](CC(C)C)C(=O)N[C@@H](CC(=O)O)C(=O)N[C@@H](CC(C)C)C(=O)N[C@@H](CC(C)C)C(=O)N[C@@H](Cc1c[nH]c2ccccc12)C(=O)N[C@@H](CC(=O)O)C(=O)N[C@@H](C)C(=O)N[C@@H](CC(=O)O)C(=O)N[C@@H](CCC(=O)O)C(=O)N[C@@H](CSS[C@H](C)COC(=O)NCN1c2cc(F)cc3c(=O)[nH]nc(c23)[C@H](c2ncnn2C)[C@H]1c1ccc(F)cc1)C(=O)NCC(=O)O)[C@@H](C)O)[C@@H](C)O` [Example 41], the results for the 50% inhibitory concentration (IC50) in the test with DLD-1 BRCA2−/− cells and on PARP were 43 nM and 1.9 nM, respectively.

Usually IC50 stands for the concentration needed to halve the response being measured.
